Data from publication PMC7614687, “Modulation of the substrate specificity of the kinase PDK1 by distinct conformations of the full-length protein*” (Science signaling, 2023).

Key:
PDK1 = biological target: T1, PDK1 (Homo sapiens, UniProt O15530); assay: Thermo Fisher Scientific/Invitrogen PDK1 cascade assay (Akt2 as substrate, no PIP3); assay type: biochemical; conditions: 10-point titration
T1 sequence (O15530 1-556): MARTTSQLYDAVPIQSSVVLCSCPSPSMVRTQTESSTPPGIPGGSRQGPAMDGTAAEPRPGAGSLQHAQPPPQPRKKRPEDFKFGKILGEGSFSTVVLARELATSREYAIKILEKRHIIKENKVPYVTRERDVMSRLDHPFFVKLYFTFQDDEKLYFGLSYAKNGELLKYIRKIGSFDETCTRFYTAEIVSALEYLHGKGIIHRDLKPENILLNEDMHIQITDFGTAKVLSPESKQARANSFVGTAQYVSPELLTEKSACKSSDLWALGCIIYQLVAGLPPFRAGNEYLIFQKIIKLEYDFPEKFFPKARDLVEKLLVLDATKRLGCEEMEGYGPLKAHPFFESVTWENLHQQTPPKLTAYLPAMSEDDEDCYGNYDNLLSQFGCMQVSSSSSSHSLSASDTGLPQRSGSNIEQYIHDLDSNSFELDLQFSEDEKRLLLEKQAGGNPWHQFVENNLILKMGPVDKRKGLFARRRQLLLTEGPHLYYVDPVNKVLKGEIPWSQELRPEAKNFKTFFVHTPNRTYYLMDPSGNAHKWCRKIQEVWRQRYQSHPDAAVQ
Procedure: To explore the structural basis of this effect, we synthesized additional inositol phosphate derivatives related to IP5 (Fig. 2A). […] The first was Thermo Fisher Scientific/Invitrogen PDK1 cascade assay, which uses Akt as substrate in a coupled, cascade-type assay and in which the activity of PDK1 is measured by its ability to activate Akt. The second was the “PDK1 Direct” assay, which uses a peptide substrate (Ser/Thr 07) of undisclosed sequence (table S1) as the substrate of PDK1 and a readout of FRET between coumarin and fluorescein (5-FAM). […] Scyllo-IP5 and another synthetic derivative of IP5, 2-O-(2-aminoethyl)-IP5 (AMR1474), were weak inhibitors in the same assays (10% or less inhibition at 1 μM) (table S2).
The commercial PDK1 activity assays were provided by Thermo Fisher Scientific as a service. […] The ¨PDK1 Direct¨ biochemical assay measures the phosphorylation of a peptide termed Ser/Thr 07 that is labeled with a donor fluorophore (coumarin) and an acceptor fluorophore (fluorescein) to create a FRET pair. The peptide substrate was first incubated with the kinase and ATP-Mg (25 μM ATP), then non-phosphorylated peptide was cleaved with a protease. The remaining FRET corresponds to the phosphorylated substrate. […]

GST-PDK1_360-556 = biological target: T2, GST-PDK1_360-556 (Homo sapiens, UniProt O15530); assay: AlphaScreen biotin-PIP3 / GST-PDK1_360-556 (linker-PH domain) displacement; assay type: binding; conditions: relative to 5 nM on GST-PDK1_1-556
T2 construct: GST-PDK1_360-556 (GST-PDK1-Linker-PH) was cloned into the BamHI-KpnI sites in pEBG2T plasmid; made in house; host or cells: HEK293 cells (transient transfection of pEBG2T)
T2 sequence (O15530 360-556): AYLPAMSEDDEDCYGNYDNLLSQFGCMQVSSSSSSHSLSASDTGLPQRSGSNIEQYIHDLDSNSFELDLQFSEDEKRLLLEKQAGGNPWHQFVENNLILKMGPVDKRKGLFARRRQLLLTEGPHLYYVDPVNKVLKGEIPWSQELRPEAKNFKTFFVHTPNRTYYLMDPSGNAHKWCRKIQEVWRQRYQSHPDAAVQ
Procedure: The AlphaScreen® assay was performed following the general guidelines from the manufacturer (Perkin Elmer) ([29]). In short, the assay was performed in a final volume of 25 μl in white 384-well microtiter plates (Greiner) in a standard buffer containing 50 mM Tris-HCl (pH 7.4), 100 mM NaCl, 2 mM DTT, 0.01% (v/v) Tween-20 and 0.1% (w/v) BSA, with the addition of 5 μl of beads (anti-GST coated acceptor beads and streptavidin-coated donor beads; nickel chelate-coated acceptor beads and streptavidin-coated donor beads; or nickel chelate-coated acceptor beads and GSH-coated donor beads, 20 μg/ml final concentrations for each bead type). […]
The conditions for each AlphaScreen assay were identified in cross-titration experiments for each interaction to choose the ideal pair of concentrations within the linear range of the interactions. […] His-PDK1 and GST-fusion protein in the presence or absence of the different compounds were incubated in the dark for 60 min at room temperature and the emission of light from the acceptor beads was measured in an EnVision reader (Perkin Elmer) or Spark plate reader (Tecan). […]
Biotin-PIP3 interactions with GST-PDK1_1-556 or GST-PDK1_360-556 were assessed in the standard buffer. […]

Row | Compound | Hill slope, Cascade (PDK1) | IC50 (PDK1; absence of PIP3) [nM] | fold higher concentration needed for similar displacement of PIP3 from GST-linker-PH domain than from GST-PDK1_1-556 (GST-PDK1_360-556)
1 | O=C(O[C@H]1[C@@H](OP(=O)(O)O)[C@H](OP(=O)(O)O)[C@@H](OP(=O)(O)O)[C@H](OP(=O)(O)O)[C@H]1OP(=O)(O)O)c1ccccc1 [HYG8, 2-O-benzoyl-IP5] | 2.19 | 6.42 | –
2 | CCCCO[C@H]1[C@@H](OP(=O)(O)O)[C@H](OP(=O)(O)O)[C@@H](OP(=O)(O)O)[C@H](OP(=O)(O)O)[C@H]1OP(=O)(O)O [HYG14, 2-O-butyl-IP5] | – | – | more than 1000 fold
